Where two headings read alike, the source gives them in different places.
What was measured:
[1] = molecular target: RPS6KB1 (p70S6K) (Homo sapiens, UniProt P23443); experiment: Z'-LYTE SelectScreen biochemical kinase assay RPS6KB1 (p70S6K)
From the text: (§1) Thermo Fisher Scientific SelectScreen™ Biochemical Kinase Profiling Service Z′-LYTE™ Screening Protocol and Assay Conditions Assay Theory
(§2) The […] biochemical assay employs a fluorescence-based, coupled-enzyme format and is based on the differential sensitivity of phosphorylated and non-phosphorylated peptides to proteolytic cleavage. The peptide substrate is labeled with two fluorophores—one at each end—that make up a FRET pair. In the primary reaction, the kinase transfers the gamma-phosphate of ATP to a single tyrosine, serine or threonine residue in a synthetic FRET-peptide. In the secondary reaction, a site-specific protease recognizes and cleaves non-phosphorylated FRET-peptides. Phosphorylation of FRET-peptides suppresses cleavage by the Development Reagent. Cleavage disrupts FRET between the donor (i.e., coumarin) and acceptor (i.e., fluorescein) fluorophores on the FRET-peptide, whereas uncleaved, phosphorylated FRET-peptides maintain FRET. A ratiometric method, which calculates the ratio (Emission Ratio=Coumarin emission (445 nm)/Fluorescein emission (520 nm)) of donor emission to acceptor emission after excitation of the donor fluorophore at 400 nm, is used to quantitate reaction progress, as shown in the equation below. A significant benefit of this ratiometric method for quantitating reaction progress is the elimination of well-to-well variations in FRET-peptide concentration and signal intensities. As a result, the assay yields very high Z′-factor values (>0.7) at a low percent phosphorylation. Both cleaved and uncleaved FRET-peptides contribute to the fluorescence signals and therefore to the Emission Ratio. The extent of phosphorylation of the FRET-peptide can be calculated from the Emission Ratio. The Emission Ratio will remain low if the FRET-peptide is phosphorylated (i.e., no kinase inhibition) and will be high if the FRET-peptide is non-phosphorylated (i.e., kinase inhibition).
(§3) The Test Compounds are screened in 1% DMSO (final) in the well. For 10 point titrations, 3-fold serial dilutions are conducted from the starting concentration of the customer's choosing.
(§4) All Peptide/Kinase Mixtures are diluted to a 2× working concentration in the appropriate Kinase Buffer (see section Kinase Specific Assay Conditions for a complete description).
(§5) All ATP Solutions are diluted to a 4× working concentration in Kinase Buffer (50 mM HEPES pH 7.5, 0.01% BRIJ-35, 10 mM MgCl2, 1 mM EGTA). ATP Km apparent is previously determined using a Z″-LYTE assay.
(§6) The Development Reagent is diluted in Development Buffer (see section Kinase-Specific Assay Conditions—Direct and Cascade for a complete description).
(§7) Bar-coded Corning, low volume NBS, black 384-well plate (Corning Cat. #4514) • 1. 100 nL—100× Test Compound in 100% DMSO • 2. 2.4 μL—Kinase buffer • 3. 5 μL—2× Peptide/Kinase Mixture • 4. 2.5 μL—4×ATP Solution • 5. 30—second plate shake • 6. 60—minute Kinase Reaction incubation at room temperature • 7. 5 μL—Development Reagent Solution • 8. 30—second plate shake • 9. 60—minute Development Reaction incubation at room temperature • 10. Read on fluorescence plate reader and analyze the data Z′-LYTE Assay Controls
(§8) SelectScreen Kinase Profiling Service uses XLfit from IDBS. The dose response curve is curve fit to model number 205 (sigmoidal dose-response model).
(§9) The 2×RPS6 KB1 (p70S6K)/Ser/Thr 07 mixture is prepared in 50 mM HEPES pH 7.5, 0.01% BRIJ-35, 10 mM MgCl2, 1 mM EGTA. The final 10 μL Kinase Reaction consists of 2.87-17.7 ng RPS6 KB1 (p70S6K) and 2 μM Ser/Thr 07 in 50 mM HEPES pH 7.5, 0.01% BRIJ-35, 10 mM MgCl2, 1 mM EGTA. After the 1 hour Kinase Reaction incubation, 5 μL of a 1:45000 dilution of Development Reagent A is added.

[2] = molecular target: RET (Homo sapiens, UniProt P07949); experiment: Z'-LYTE SelectScreen biochemical kinase assay RET
Chain of RET (P07949 29-1114): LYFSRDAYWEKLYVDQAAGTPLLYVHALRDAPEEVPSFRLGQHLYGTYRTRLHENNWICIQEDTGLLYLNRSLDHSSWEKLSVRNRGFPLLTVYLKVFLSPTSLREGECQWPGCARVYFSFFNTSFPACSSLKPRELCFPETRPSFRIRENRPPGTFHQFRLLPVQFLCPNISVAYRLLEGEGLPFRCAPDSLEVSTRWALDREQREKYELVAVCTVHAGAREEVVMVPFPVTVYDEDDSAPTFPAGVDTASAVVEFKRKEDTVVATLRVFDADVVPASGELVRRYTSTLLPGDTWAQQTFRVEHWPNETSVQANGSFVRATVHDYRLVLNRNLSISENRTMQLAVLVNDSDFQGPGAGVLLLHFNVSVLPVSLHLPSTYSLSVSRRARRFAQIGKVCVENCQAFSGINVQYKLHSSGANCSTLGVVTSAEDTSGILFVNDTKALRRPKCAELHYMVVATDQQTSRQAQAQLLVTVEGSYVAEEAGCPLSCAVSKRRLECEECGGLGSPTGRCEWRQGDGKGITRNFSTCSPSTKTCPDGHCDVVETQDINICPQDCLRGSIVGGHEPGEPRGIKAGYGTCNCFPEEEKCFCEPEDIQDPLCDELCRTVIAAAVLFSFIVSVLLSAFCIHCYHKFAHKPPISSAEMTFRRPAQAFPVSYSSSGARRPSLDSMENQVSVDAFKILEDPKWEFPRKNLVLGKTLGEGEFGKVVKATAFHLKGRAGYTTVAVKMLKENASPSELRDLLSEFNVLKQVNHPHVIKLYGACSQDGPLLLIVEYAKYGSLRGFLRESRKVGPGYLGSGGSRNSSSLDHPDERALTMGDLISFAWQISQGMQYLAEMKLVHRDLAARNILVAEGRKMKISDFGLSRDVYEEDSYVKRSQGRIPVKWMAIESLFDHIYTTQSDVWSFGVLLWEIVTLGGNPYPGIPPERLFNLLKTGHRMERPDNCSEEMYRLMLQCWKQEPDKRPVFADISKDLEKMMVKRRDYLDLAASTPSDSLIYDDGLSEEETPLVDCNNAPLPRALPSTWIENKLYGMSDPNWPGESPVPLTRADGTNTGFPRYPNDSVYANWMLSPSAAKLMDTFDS
From the text: as §1, §2, §3, §4, §5, §6, §7, §8
as §9, with “2×RET/Tyr 02” for “2×RPS6 KB1 (p70S6K)/Ser/Thr 07”, “0.49-3.64” for “2.87-17.7”, “RET” for “RPS6 KB1 (p70S6K)”, “Tyr 02” for “Ser/Thr 07”, “1:128” for “1:45000”

[3] = molecular target: PDGFRA (PDGFR alpha) (Homo sapiens, UniProt P16234); experiment: Z'-LYTE SelectScreen biochemical kinase assay PDGFRA (PDGFR alpha)
Chain of PDGFRA (PDGFR alpha) (P16234 24-1089): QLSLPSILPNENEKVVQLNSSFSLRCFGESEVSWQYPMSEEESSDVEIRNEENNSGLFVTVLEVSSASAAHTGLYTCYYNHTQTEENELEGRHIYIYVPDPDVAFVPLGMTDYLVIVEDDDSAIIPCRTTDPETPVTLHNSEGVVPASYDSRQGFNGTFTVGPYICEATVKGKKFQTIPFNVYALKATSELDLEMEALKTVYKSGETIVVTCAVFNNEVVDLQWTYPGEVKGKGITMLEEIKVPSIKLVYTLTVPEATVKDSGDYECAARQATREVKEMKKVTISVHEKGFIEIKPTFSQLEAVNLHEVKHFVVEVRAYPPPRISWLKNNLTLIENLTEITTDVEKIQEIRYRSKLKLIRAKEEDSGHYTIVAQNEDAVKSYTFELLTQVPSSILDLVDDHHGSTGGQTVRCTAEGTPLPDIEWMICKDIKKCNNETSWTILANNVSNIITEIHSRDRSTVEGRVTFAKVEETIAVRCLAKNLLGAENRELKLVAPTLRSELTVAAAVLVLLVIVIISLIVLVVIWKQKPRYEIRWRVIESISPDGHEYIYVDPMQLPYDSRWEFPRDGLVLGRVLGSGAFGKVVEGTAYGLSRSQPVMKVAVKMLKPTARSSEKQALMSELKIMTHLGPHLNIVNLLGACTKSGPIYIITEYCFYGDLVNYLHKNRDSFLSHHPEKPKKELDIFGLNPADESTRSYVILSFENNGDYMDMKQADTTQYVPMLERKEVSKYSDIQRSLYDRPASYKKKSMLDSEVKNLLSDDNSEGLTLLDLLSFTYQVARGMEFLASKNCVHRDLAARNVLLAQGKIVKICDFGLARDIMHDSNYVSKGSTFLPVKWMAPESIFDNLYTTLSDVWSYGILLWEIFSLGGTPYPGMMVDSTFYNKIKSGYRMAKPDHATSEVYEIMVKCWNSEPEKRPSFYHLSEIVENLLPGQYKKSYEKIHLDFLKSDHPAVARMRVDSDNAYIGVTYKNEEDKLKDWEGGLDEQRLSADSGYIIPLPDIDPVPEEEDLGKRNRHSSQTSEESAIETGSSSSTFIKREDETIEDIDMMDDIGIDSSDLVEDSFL
From the text: as §1, §2, §3, §4, §5, §6, §7, §8
The 2×PDGFRA (PDGFR alpha)/Tyr 04 mixture is prepared in 50 mM HEPES pH 7.5, 0.01% BRIJ-35, 10 mM MgCl2, 4 mM MnCl2, 1 mM EGTA, 2 mM DTT. The final 10 μL Kinase Reaction consists of 1.54-22.6 ng PDGFRA (PDGFR alpha) and 2 μM Tyr 04 in 50 mM HEPES pH 7.5, 0.01% BRIJ-35, 10 mM MgCl2, 2 mM MnCl2, 1 mM EGTA, 1 mM DTT. After the 1 hour Kinase Reaction incubation, 5 μL of a 1:64 dilution of Development Reagent B is added.

[4] = molecular target: PTK2 (FAK) (Homo sapiens, UniProt Q05397); experiment: Z'-LYTE SelectScreen biochemical kinase assay PTK2 (FAK)
Chain of PTK2 (FAK) (Q05397 whole entry): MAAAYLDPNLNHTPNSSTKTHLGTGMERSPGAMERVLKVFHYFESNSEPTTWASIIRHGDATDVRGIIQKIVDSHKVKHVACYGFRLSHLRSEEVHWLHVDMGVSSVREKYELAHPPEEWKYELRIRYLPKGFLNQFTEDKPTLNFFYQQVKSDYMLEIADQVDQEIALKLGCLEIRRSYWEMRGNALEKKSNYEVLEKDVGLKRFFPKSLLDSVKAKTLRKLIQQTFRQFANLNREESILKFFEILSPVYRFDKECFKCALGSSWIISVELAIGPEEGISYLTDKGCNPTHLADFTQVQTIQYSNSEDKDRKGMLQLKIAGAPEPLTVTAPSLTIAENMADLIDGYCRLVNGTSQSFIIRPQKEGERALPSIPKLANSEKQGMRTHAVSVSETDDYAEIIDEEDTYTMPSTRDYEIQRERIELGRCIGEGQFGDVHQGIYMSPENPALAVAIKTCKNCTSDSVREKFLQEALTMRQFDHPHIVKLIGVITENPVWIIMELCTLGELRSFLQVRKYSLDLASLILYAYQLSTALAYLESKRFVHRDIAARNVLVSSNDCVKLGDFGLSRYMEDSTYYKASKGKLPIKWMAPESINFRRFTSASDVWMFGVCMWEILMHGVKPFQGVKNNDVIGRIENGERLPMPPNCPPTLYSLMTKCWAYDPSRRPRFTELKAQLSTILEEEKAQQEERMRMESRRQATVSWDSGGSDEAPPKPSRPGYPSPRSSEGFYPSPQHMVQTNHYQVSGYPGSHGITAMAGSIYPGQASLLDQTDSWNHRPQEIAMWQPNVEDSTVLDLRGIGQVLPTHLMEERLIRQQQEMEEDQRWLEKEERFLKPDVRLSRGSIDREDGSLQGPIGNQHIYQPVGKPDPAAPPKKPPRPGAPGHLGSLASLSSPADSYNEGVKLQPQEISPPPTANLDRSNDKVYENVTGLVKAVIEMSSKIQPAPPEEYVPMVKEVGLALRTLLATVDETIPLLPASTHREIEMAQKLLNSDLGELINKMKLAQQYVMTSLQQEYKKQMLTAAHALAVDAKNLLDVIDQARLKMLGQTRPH
From the text: as §1, §2, §3, §4, §5, §6, §7, §8
The 2×PTK2 (FAK)/Tyr 07 mixture is prepared in 50 mM HEPES pH 7.5, 0.01% BRIJ-35, 10 mM MgCl2, 1 mM EGTA. The final 10 μL Kinase Reaction consists of 12.5-100 ng PTK2 (FAK) and 2 μM Tyr 07 in 50 mM HEPES pH 7.5, 0.01% BRIJ-35, 10 mM MgCl2, 1 mM EGTA. After the 1 hour Kinase Reaction incubation, 5 μL of a 1:16 dilution of Development Reagent B is added.

[5] = 10 μmolar compound concentration, ATP at Km app, read-out: RPS6KB1 (p70S6K) inhibition
[6] = 10 μmolar compound concentration, ATP at Km app, read-out: RET inhibition
[7] = 10 μmolar compound concentration, ATP at Km app, read-out: PDGFRA (PDGFR alpha) inhibition
[8] = 10 μmolar compound concentration, ATP at Km app, read-out: PTK2 (FAK) inhibition
[9] = read-out: % Inhibition mean RPS6KB1 (p70S6K)
[10] = read-out: % Inhibition mean RET
[11] = read-out: % Inhibition mean PDGFRA (PDGFR alpha)
[12] = read-out: % Inhibition mean PTK2 (FAK)

Chain of RPS6KB1 (p70S6K) (P23443 whole entry): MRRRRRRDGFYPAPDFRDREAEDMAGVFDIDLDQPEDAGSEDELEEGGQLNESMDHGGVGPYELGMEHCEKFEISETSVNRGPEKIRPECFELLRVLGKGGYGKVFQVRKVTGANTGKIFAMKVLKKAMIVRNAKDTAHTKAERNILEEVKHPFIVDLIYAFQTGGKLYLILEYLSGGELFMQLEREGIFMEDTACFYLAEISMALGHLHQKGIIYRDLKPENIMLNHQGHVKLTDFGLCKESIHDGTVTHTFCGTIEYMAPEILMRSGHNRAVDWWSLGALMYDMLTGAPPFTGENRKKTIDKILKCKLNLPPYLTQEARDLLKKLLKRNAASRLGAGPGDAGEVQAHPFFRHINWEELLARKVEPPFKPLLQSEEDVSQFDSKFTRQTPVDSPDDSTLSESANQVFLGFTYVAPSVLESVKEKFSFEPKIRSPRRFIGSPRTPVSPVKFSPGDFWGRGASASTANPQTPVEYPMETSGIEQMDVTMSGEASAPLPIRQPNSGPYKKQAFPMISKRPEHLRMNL

Row | SMILES | inhibition at 10 µM [1, 5] [%] | inhibition at 10 µM ([1]; read-out: % Inhibition mean) [%] | inhibition at 10 µM [2, 6] [%] | inhibition at 10 µM ([2]; read-out: % Inhibition mean) [%] | inhibition at 10 µM [3, 7] [%] | inhibition at 10 µM ([3]; read-out: % Inhibition mean) [%] | inhibition at 10 µM [4, 8] [%] | inhibition at 10 µM ([4]; read-out: % Inhibition mean) [%] | inhibition at 10 µM [1, 9] [%] | inhibition at 10 µM [2, 10] [%] | inhibition at 10 µM [3, 11] [%] | inhibition at 10 µM [4, 12] [%]
1 | CC1(C)C(=O)Nc2ccc(Nc3nc4c(-c5cccc(F)c5)cccn4n3)cc21 [Cpd. 263 in WO09155551, reference compound] | > 80 | 93 | > 80 | 96 | > 80 | 86 | > 80 | 101 | – | – | – | –
2 | Fc1cccc(-c2cccn3nc(Nc4ccc5[nH]cnc5c4)nc23)c1 [Cpd. 293 in WO09155551, reference compound] | > 80 | 85 | > 80 | 94 | > 80 | 88 | > 80 | 94 | – | – | – | –
3 | CC1(C)NC(=O)c2ccc(Nc3nc4c(-c5cccc(F)c5)cccn4n3)cc21 [Cpd. 302 in WO09155551, reference compound] | > 80 | 86 | > 80 | 98 | > 80 | 89 | > 80 | 86 | – | – | – | –
4 | Cc1cc(F)ccc1-c1cccn2nc(Nc3ccc4c(cnn4C)c3)nc12 [Example 9, [8-(4-fluoro-2-methyl-phenyl)-[1,2,4]triazolo[1,5-a]pyridine-2-yl]-(1-methyl-1H-indazol-5-yl)-amine] | < 40 | – | < 40 | – | 40 to 80 | – | < 40 | – | 3 | 39 | 59 | 7
5 | Cc1cc(F)ccc1-c1cccn2nc(NC3CCc4c(cnn4C)C3)nc12 (stereo not shown) [Example 10, [8-(4-fluoro-2-methyl-phenyl)-[1,2,4]triazolo[1,5-a]pyridine-2-yl]-(1-methyl-4,5,6,7-tetrahydro-1H-indazol-5-yl)-amine] | < 40 | – | < 40 | – | < 40 | – | < 40 | – | 2 | 18 | 8 | 13
6 | Cc1cc(F)ccc1-c1cccn2nc(NC3CCc4cnn(C)c4C3)nc12 (stereo not shown) [Example 40, [8-(4-Fluoro-2-methyl-phenyl)-[1,2,4]triazolo[1,5-a]pyridine-2-yl]-(1-methyl-4,5,6,7-tetrahydro-1H-indazol-6-yl)-amine] | < 40 | – | < 40 | – | < 40 | – | < 40 | – | 19 | 18 | 5 | 18
7 | CCn1ncc2c1CCC(Nc1nc3c(-c4ccc(F)cc4C)cccn3n1)C2 (stereo not shown) [Example 42, (1-Ethyl-4,5,6,7-tetrahydro-1H-indazol-5-yl)-[8-(4-fluoro-2-methyl-phenyl)-[1,2,4]triazolo[1,5-a]pyridine-2-yl]-amine] | < 40 | – | < 40 | – | < 40 | – | < 40 | – | 6 | 29 | 12 | 26
8 | CCCn1ncc2c1CCC(Nc1nc3c(-c4ccc(F)cc4C)cccn3n1)C2 (stereo not shown) [Example 43, [8-(4-fluoro-2-methyl-phenyl)-[1,2,4]triazolo[1,5-a]pyridine-2-yl]-(1-propyl-4,5,6,7-tetrahydro-1H-indazol-5-yl)-amine] | < 40 | – | < 40 | – | < 40 | – | < 40 | – | 3 | 26 | 16 | 19
